# Reference: PubChem BioAssay (NCI)
#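 These data come from cells grown in 96-well plates and exposed to compound for 48 hours at five concentrations. GI50 = concentration required for 50% inhibition of growth. Definition used: TGI = concentration required for complete inhibition of growth.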
# Legend:
# Assay in all cases: NCI tumour cell line growth inhibition, 48 h
# [1] = tested on: UO-31 renal
# [2] = tested on: MDA-MB-231 breast
# [3] = tested on: MCF7 breast
# [4] = tested on: KM12 colon
# [5] = tested on: 786-0 renal
# [6] = tested on: OVCAR-4 ovarian
# [7] = tested on: SF-268 CNS
# [8] = tested on: MOLT-4 leukemia
# [9] = tested on: NCI-H460 lung
# [10] = tested on: HOP-62 NSCLC
# [11] = tested on: OVCAR-3 ovarian
# [12] = tested on: HT29 colon
# [13] = tested on: CCRF-CEM leukemia
# [14] = tested on: ACHN renal
# [15] = tested on: RXF 393 renal
# [16] = tested on: SK-OV-3 ovarian
# [17] = tested on: PC-3 prostate
# [18] = tested on: T-47D breast
# [19] = tested on: SF-539 CNS
# [20] = tested on: IGROV1 ovarian
# [21] = tested on: BT-549 breast
# [22] = tested on: HS 578T breast
# [23] = tested on: EKVX NSCLC
# [24] = tested on: M14 melanoma
# [25] = tested on: A498 renal
# [26] = tested on: UACC-257 melanoma
# [27] = tested on: SNB-19 CNS
# [28] = tested on: HL-60(TB) leukemia
# [29] = tested on: SK-MEL-28 melanoma
# [30] = tested on: HCC-2998 colon
# [31] = tested on: COLO 205 colon
# [32] = tested on: NCI/ADR-RES ovarian
# [33] = tested on: RPMI-8226 leukemia
# [34] = tested on: NCI-H522 lung
# [35] = tested on: SR leukemia
# [36] = tested on: K-562 leukemia
# [37] = tested on: MDA-MB-435
# [38] = tested on: MALME-3M melanoma
# [39] = tested on: LOX IMVI melanoma
# [40] = tested on: OVCAR-8 ovarian
# [41] = tested on: DU-145 prostate
# [42] = tested on: U251 CNS
# [43] = tested on: NCI-H23 lung
# [44] = tested on: SK-MEL-5 melanoma
# [45] = tested on: HCT-116 colon
# [46] = tested on: OVCAR-5 ovarian
# [47] = tested on: CAKI-1 renal
# [48] = tested on: SN12C renal
# [49] = tested on: SK-MEL-2 melanoma
# [50] = tested on: A549 NSCLC
# [51] = tested on: SF-295 CNS
# [52] = tested on: TK-10 renal
# [53] = tested on: UACC-62 melanoma
# [54] = tested on: SNB-75 CNS
# [55] = tested on: HOP-92 NSCLC
# [56] = tested on: NCI-H226 lung
# [57] = tested on: HCT-15 colon
# [58] = tested on: SW-620 colon
# [59] = tested on: MDA-N
smiles,measurement,setting,value
O=C(CSc1nc2ccc([N+](=O)[O-])cc2[nH]1)Nc1cccc(C(F)(F)F)c1,GI50,[1],1.81 µM
same,TGI,[1],8.9 µM
same,GI50,[2],2.13 µM
same,TGI,[2],6.65 µM
same,GI50,[3],1.95 µM
same,TGI,[3],9.44 µM
same,GI50,[4],2.2 µM
same,TGI,[4],8.08 µM
same,GI50,[5],2.98 µM
same,TGI,[5],13.1 µM
same,GI50,[6],1.61 µM
same,TGI,[6],14.5 µM
same,GI50,[7],2.73 µM
same,TGI,[7],13.9 µM
same,GI50,[8],2.71 µM
same,TGI,[8],19.5 µM
same,GI50,[9],2.88 µM
same,TGI,[9],11.3 µM
same,GI50,[10],2.56 µM
same,TGI,[10],10.8 µM
same,GI50,[11],1.66 µM
same,TGI,[11],11 µM
same,GI50,[12],2.78 µM
same,TGI,[12],11.3 µM
same,GI50,[13],2.58 µM
same,TGI,[13],> 60.1 µM
same,GI50,[14],2.42 µM
same,TGI,[14],8.21 µM
same,GI50,[15],2 µM
same,TGI,[15],8.02 µM
same,GI50,[16],1.66 µM
same,TGI,[16],5.86 µM
same,GI50,[17],2.47 µM
same,TGI,[17],11.9 µM
same,GI50,[18],1.14 µM
same,TGI,[18],11.8 µM
same,GI50,[19],2.9 µM
same,TGI,[19],11.7 µM
same,GI50,[20],2.87 µM
same,TGI,[20],14.7 µM
same,GI50,[21],2.63 µM
same,TGI,[21],11.6 µM
same,GI50,[22],2.45 µM
same,TGI,[22],10.7 µM
same,GI50,[23],1.84 µM
same,TGI,[23],9.94 µM
same,GI50,[24],3.17 µM
same,TGI,[24],14.9 µM
same,GI50,[25],0.963 µM
same,TGI,[25],3.52 µM
same,GI50,[26],1.33 µM
same,TGI,[26],6.63 µM
same,GI50,[27],2.71 µM
same,TGI,[27],12.7 µM
same,GI50,[28],2.57 µM
same,TGI,[28],8.33 µM
same,GI50,[29],2.34 µM
same,TGI,[29],13.5 µM
same,GI50,[30],2.8 µM
same,TGI,[30],12.2 µM
same,GI50,[31],1.71 µM
same,TGI,[31],3.47 µM
same,GI50,[32],2.29 µM
same,TGI,[32],8.75 µM
same,GI50,[33],1.37 µM
same,TGI,[33],> 23.6 µM
same,GI50,[34],1.55 µM
same,TGI,[34],9.05 µM
same,GI50,[35],3.02 µM
same,TGI,[35],> 43.7 µM
same,GI50,[36],2.16 µM
same,TGI,[36],> 39.8 µM
same,GI50,[37],2.5 µM
same,TGI,[37],12.8 µM
same,GI50,[38],1.48 µM
same,TGI,[38],6.66 µM
same,GI50,[39],2.95 µM
same,TGI,[39],13 µM
same,GI50,[40],2.93 µM
same,TGI,[40],15.8 µM
same,GI50,[41],3.54 µM
same,TGI,[41],15 µM
same,GI50,[42],2.28 µM
same,TGI,[42],12.2 µM
same,GI50,[43],1.98 µM
same,TGI,[43],8.81 µM
same,GI50,[44],1.03 µM
same,TGI,[44],2.57 µM
same,GI50,[45],2.69 µM
same,TGI,[45],12.1 µM
same,GI50,[46],2.62 µM
same,TGI,[46],11.1 µM
same,GI50,[47],1.76 µM
same,TGI,[47],7.15 µM
same,GI50,[48],2.18 µM
same,TGI,[48],10.6 µM
same,GI50,[49],1.96 µM
same,TGI,[49],5.99 µM
same,GI50,[50],2.3 µM
same,TGI,[50],12.7 µM
same,GI50,[51],1.73 µM
same,TGI,[51],5.65 µM
same,GI50,[52],3.14 µM
same,TGI,[52],10.9 µM
same,GI50,[53],1.1 µM
same,TGI,[53],8.85 µM
same,GI50,[54],1.61 µM
same,TGI,[54],7.81 µM
same,GI50,[55],0.3 µM
same,TGI,[55],2.82 µM
same,GI50,[56],1.69 µM
same,TGI,[56],9.27 µM
same,GI50,[57],2.74 µM
same,TGI,[57],12.7 µM
same,GI50,[58],3.13 µM
same,TGI,[58],14.6 µM
CCOC(=O)/C(=C\NC[C@@H](C)O)c1nc2ccccc2[nH]1,TGI,[1],4.02 µM
same,TGI,[3],> 100 µM
same,TGI,[4],> 100 µM
same,TGI,[5],> 100 µM
same,TGI,[6],> 100 µM
same,TGI,[7],> 100 µM
same,TGI,[9],> 100 µM
same,TGI,[10],> 100 µM
same,TGI,[11],> 100 µM
same,TGI,[12],> 100 µM
same,TGI,[14],90.4 µM
same,TGI,[15],> 100 µM
same,TGI,[16],> 100 µM
same,TGI,[19],> 100 µM
same,TGI,[20],> 100 µM
same,TGI,[21],> 100 µM
same,TGI,[23],> 100 µM
same,TGI,[24],> 100 µM
same,TGI,[25],> 100 µM
same,TGI,[26],> 100 µM
same,TGI,[27],> 100 µM
same,TGI,[28],90.4 µM
same,TGI,[29],> 100 µM
same,TGI,[30],> 100 µM
same,TGI,[59],> 100 µM
same,TGI,[31],> 100 µM
same,TGI,[32],> 100 µM
same,TGI,[33],63.3 µM
same,TGI,[34],> 100 µM
same,TGI,[35],84.3 µM
same,TGI,[37],> 100 µM
same,TGI,[38],> 100 µM
same,TGI,[39],> 100 µM
same,TGI,[40],> 100 µM
same,TGI,[41],> 100 µM
same,TGI,[43],> 100 µM
same,TGI,[44],> 100 µM
same,TGI,[45],> 100 µM
same,TGI,[46],> 100 µM
same,TGI,[47],> 100 µM
same,TGI,[48],> 100 µM
same,TGI,[50],> 100 µM
same,TGI,[51],> 100 µM
same,TGI,[52],> 100 µM
same,TGI,[53],> 100 µM
same,TGI,[54],> 100 µM
same,TGI,[55],> 100 µM
same,TGI,[57],> 100 µM
same,TGI,[58],> 100 µM
COC(=O)/C=C/COCC1C2CCC(=O)C21 (stereo not given),TGI,[1],> 100 µM
same,TGI,[2],> 100 µM
same,TGI,[3],> 100 µM
same,TGI,[4],> 100 µM
same,TGI,[5],> 100 µM
same,TGI,[6],> 100 µM
same,TGI,[7],> 100 µM
same,TGI,[8],> 100 µM
same,TGI,[9],> 100 µM
same,TGI,[10],> 100 µM
same,TGI,[11],> 100 µM
same,TGI,[12],> 100 µM
same,TGI,[13],> 100 µM
same,TGI,[14],> 100 µM
same,TGI,[15],> 100 µM
same,TGI,[16],> 100 µM
same,TGI,[17],> 100 µM
same,TGI,[19],> 100 µM
same,TGI,[20],> 100 µM
same,TGI,[21],> 100 µM
same,TGI,[23],> 100 µM
same,TGI,[24],> 100 µM
same,TGI,[26],> 100 µM
same,TGI,[27],> 100 µM
same,TGI,[29],> 100 µM
same,TGI,[30],> 100 µM
same,TGI,[59],> 100 µM
same,TGI,[31],> 100 µM
same,TGI,[32],> 100 µM
same,TGI,[33],> 100 µM
same,TGI,[34],> 100 µM
same,TGI,[35],> 100 µM
same,TGI,[36],> 100 µM
same,TGI,[37],> 100 µM
same,TGI,[38],> 100 µM
same,TGI,[39],> 100 µM
same,TGI,[40],> 100 µM
same,TGI,[41],> 100 µM
same,TGI,[42],> 100 µM
same,TGI,[43],> 100 µM
same,TGI,[44],> 100 µM
same,TGI,[45],> 100 µM
same,TGI,[46],> 100 µM
same,TGI,[47],51.5 µM
same,TGI,[48],> 100 µM
same,TGI,[49],> 100 µM
same,TGI,[50],> 100 µM
same,TGI,[51],> 100 µM
same,TGI,[52],> 100 µM
same,TGI,[53],> 100 µM
same,TGI,[54],> 100 µM
same,TGI,[55],> 100 µM
same,TGI,[56],> 100 µM
same,TGI,[57],> 100 µM
same,TGI,[58],> 100 µM
